# Tests used:
# human SKmel23 cells = assay: SKmel23 metastatic melanoma model (lung surface nodules); type: in vivo, nude mice; conditions: for reduced metastasis (percent inhibition of lung nodules): SKmel23 i.v., day 20
# Experimental: (§1) For the following subcutaneous studies, tumor volumes are calculated by the formula [π/6(W1×W2×W2)], where W1 represents the largest tumor diameter and W2 represents the smallest tumor diameter. % T/C=100×(Treatment Volume/Initial Volume)/(Control Volume/Initial Volume). Statistical analysis is done using traditional p-value techniques. For the subcutaneous studies the p value is calculated based on the tumor volume of animals receiving the anti-TYPR antibody verses the tumor volume of the control animals. […] Statistical analysis is done using traditional p-value techniques. For the metastatic studies the p-value is calculated based on the nodules observed in the animals receiving the anti-TYPR antibody verses the nodules observed in the control animals.
# (§2) B16BL6 is an aggressive and spontaneously arising murine melanoma. It forms lung metastases in nude mice after intravenous administration. Harvest, wash and resuspend cultured SKmel23 and B16BL6 cells melanoma cells in RPMI 1640 media (10% FBS heat inactivated).
# (§3) Model 2: Inject 1×10^5 human SKmel23 cells intravenously. On the second day after the tumor injection, administer to mice anti-TYRP1 antibodies or control human IgG, according to two different dose concentrations (200 μg/mouse and 500 μg/mouse). Sacrifice mice on day 20, remove lungs, count lung surface nodules and calculate percent inhibition.
# (§4) For the subcutaneous model, harvest, wash and resuspend cultured 624mel cells, in a 50/50 solution of Matrigel and RPMI 1640 media (10% FBS heat inactivated). Inject 2×10^6 624mel cells into the left flank of nude mice. When tumors reach 200 mm^3, treat mice with anti-TYRP1 antibodies, DTIC, or a combination of anti-TYRP1 antibodies and DTIC. Administer 40 mg/kg antibodies once per week. Administer DTIC 5 mg/kg once per week. Measure tumors with calipers twice a week and calculate % T/C. For metastatic model, harvest, wash and resuspend cultured SKmel23, 888mel and B16 melanoma cells, in RPMI 1640 media (10% FBS heat inactivated). Inject SKmel23, 888mel and B16 melanoma cells intravenously. On the second day after the tumor injection, administer to mice anti-TYRP1 antibodies or control human IgG. Sacrifice mice on day 20, remove lungs, count lung surface nodules and calculate percent inhibition.
# 888mel cells = assay: 888mel metastatic melanoma model (lung surface nodules); type: in vivo, nude mice
# Experimental: as §1
# For the metastatic model, harvest, wash and resuspend 888mel cultured cells in RPMI 1640 media (10% FBS heat inactivated), inject 888mel cells intravenously. On the second day after the tumor injection, administer to mice anti-TYRP1 antibodies or control human IgG. Sacrifice mice on day 20, remove lungs, count lung surface nodules and calculate percent inhibition.
# For the subcutaneous model, harvest, wash and resuspend cultured 624mel cells, in a 50/50 solution of Matrigel and RPMI 1640 media (10% FBS heat inactivated). Inject 2×10^6 624mel cells into the left flank of nude mice. […]
# B16BL6 murine melanoma = assay: B16BL6 metastatic melanoma model (lung surface nodules); type: in vivo, nude mice; conditions: for Inhibition of lung metastases: B16BL6 i.v., day 20
# Experimental: as §1, §2
# as §3, with “1:” for “2:”, “B16BL6” for “human SKmel23”, “three” for “two”, “μg/mouse, 500 μg/mouse,” for “μg/mouse”, “1 mg/mouse).” for “500 μg/mouse).”
# as §4
# [1] = tested on: TYRP1 (+) human 624mel cells; assay: Antibody dependent cellular cytotoxicity (ADCC) against human melanoma in vitro; type: cell-based; conditions: 624mel cells in vitro
# Experimental: Collect and wash 624mel cells with a suitable media, such as AIM V media (Invitrogen Life Technologies) and plate the cells at a density of 10,000 cells /well in a 100 μL volume, in a 96-well Falcon U bottom plate. Add antibodies at 5 μg/mL in a 50 μL volume and incubate at 37° C. for 0.5 hr with target cells. Effector cells were added in a volume of 50 μL at various E:T (effector:target) ratios. Plates were further incubated for 4 hrs at 37° C. After incubation, plates were spun down at 800 g, and 100 μL of supernatants were gently transferred to 96 well flat bottom plates. Lactate dehydrogenase assay reagent was added as specified by the manufacturer (Roche) and plates were read at 490 nm. Controls in assay: Target Spontaneous and Target Maximum (by adding 50 μL of 4% triton).
# Lysis is dependent on the effector to target concentration with lysis of 50% of target cells occurring at an E:T ratio of 100:1.
# [2] = tested on: TYRP1 (+) human 624mel cells; assay: Complement dependent cytotoxicity (CDC) assay; type: cell-based; conditions: for induction of CDC (in words): 624mel cells in vitro; for Human CDC (%): Table 4 summary, 624mel cells
# Experimental: Wash human melanoma cell line 624mel 3 times and bring to a concentration of 10^6 viable cells/mL in a suitable media, such as AIM V Media (Invitrogen Life Technologies). […] Add low-Tox-M Rabbit complement (Cedarlane Labs, Westbury, N.Y.) diluted 1:5 in AIM V at 50 μl/well and incubate for 1 hr at 37° C. Count cells for viability with Trypan Blue (Invitrogen Life Technologies).
# 624mel xenograft = assay: 624mel subcutaneous xenograft model; type: in vivo, nude mice
# Experimental: as §1
# (§5) Harvest, wash and resuspend 624mel cultured cells in a 50/50 solution of Matrigel and RPMI 1640 media (10% FBS heat inactivated). For the subcutaneous tumor model, inject 2×10^6 cells subcutaneously into the left flank of nude mice. When tumors reach 200 mm^3, treat mice with anti-TYRP1 antibodies or control human IgG; administer antibodies 1 mg/mouse three times per week. Measure tumors with calipers twice a week and calculate % T/C. […] Tumor growth was inhibited and reached statistical significance at day 16 post initiation of antibody treatment (T/C=44%; P=0.01). […] Lysates of skins from different species are incubated with TA99 (5 μg/ml) for 2 hours at room temperature. The lysates are then precipitated with protein A and subjected to SDS-PAGE under reducing and non-reducing conditions using […]. After electrophoresis, the gels are transferred to PVDF membrane (Invitrogen Life Technologies). […] The blot is developed using a chemiluminescent substrate (KPL, Gaithersburg, Md.).
# For the subcutaneous tumor model, harvest, wash and resuspend 624mel cultured cells in a 50/50 solution of Matrigel and RPMI 1640 media (10% FBS heat inactivated), then inject 2×10^6 624mel cells subcutaneously into the left flank of nude mice. […] Measure tumors with calipers twice a week and calculate % T/C. […]
# Human FcR = Human FcR binding; conditions: Table 4 summary
# SKmel28 xenografts = assay: SKmel28 subcutaneous xenograft model; type: in vivo, nude mice
# Experimental: as §1, §5
# Mix Skmel28 cells in a 50/50 solution of Matrigel and RPMI 1640 media (10% FBS heat inactivated). Inject 2×10^6 cells subcutaneously into the left flank of nude mice. When tumors reach 200 mm^3, treat mice with anti-TYRP1 antibodies (6 mg/kg, 20 mg/kg, or 60 mg/kg) or control human IgG three times per week. Measure tumors with calipers twice a week and calculate % T/C. […] The anti-tumor effects at each dose were statistically significant: […] (T/C=50%; P=0.04), […] (T/C=19%; P<0.003).
substance,measurement,setting,value
"20D7: recombinant human monoclonal antibody, full length IgG1κ targeting TYRP1; heavy chain SEQ ID NO 29, light chain SEQ ID NO 32 [Antibody 20D7]",reduced metastasis (percent inhibition of lung nodules),human SKmel23 cells; 200 μg/dose,58%
same,reduced metastasis (percent inhibition of lung nodules),human SKmel23 cells; 500 μg/dose,73%
same,% inhibition,"human SKmel23 cells; Table 9, Metastatic, SKmel23",80%
same,inhibition of lung surface metastasis,"888mel cells; 888mel i.v. in nude mice, day 20",77%
same,% inhibition,"888mel cells; Table 9, Metastatic, 888 mel",77%
same,Inhibition of lung metastases,B16BL6 murine melanoma; 200 μg/mouse,65%
same,Inhibition of lung metastases,B16BL6 murine melanoma; 500 μg/mouse,74%
same,Inhibition of lung metastases,B16BL6 murine melanoma; 1 mg/mouse,95%
same,% inhibition,"B16BL6 murine melanoma; Table 9, Metastatic, B16",95%
same,induction of ADCC (in words),[1],induce ADCC
same,induction of CDC (in words),[2],induce CDC
same,Human CDC (%),[2],100%
same,complement-mediated cell lysis (in words),[2]; antibody concentration of 3.7 μg/mL,complete cell lysis
same,T/C,"624mel xenograft; 624mel subcutaneous xenograft, 40 mg/kg twice per week",21%
same,% T/C,"624mel xenograft; Table 9, Subcutaneous, 624mel, antibody 40 mg/kg once per week, DTIC 5 mg/kg once per week",50%
same,T/C,"624mel xenograft; established 624mel tumors, 1 mg/mouse three times per week, day 16 post initiation of antibody treatment",44%
same,Human FcR binding,Human FcR,110 pM
same,T/C,"SKmel28 xenografts; SKmel28 dose response, 6 mg/kg three times per week",69%
same,T/C,"SKmel28 xenografts; SKmel28 dose response, printed as 6 mg/kg and 20 mg/kg, three times per week",50%
same,T/C,"SKmel28 xenografts; SKmel28 dose response, printed as 6 mg/kg and 60 mg/kg, three times per week",19%
same,T/C,"SKmel28 xenografts; SKmel28 xenografts, vs human IgG control, day 43",51%
CTA99: chimeric anti-TYRP1 antibody with TA99 variable regions and human constant region IgG1; SEQ ID NO 31 and 33,reduced metastasis (percent inhibition of lung nodules),human SKmel23 cells; 200 μg/dose,63%
same,reduced metastasis (percent inhibition of lung nodules),human SKmel23 cells; 500 μg/dose,75%
same,induction of ADCC (in words),[1],induce ADCC
same,induction of CDC (in words),[2],induce CDC
same,Human CDC (%),[2],94%
same,CDC percentage of cytotoxicity,[2]; antibody concentration 0.05 μg/mL,9.5%
same,CDC percentage of cytotoxicity,[2]; antibody concentration 0.41 μg/mL,53%
same,CDC percentage of cytotoxicity,[2]; antibody concentration 1.23 μg/mL,54%
same,CDC percentage of cytotoxicity,[2]; antibody concentration 3.7 μg/mL,95%

# — patent US7951370B2, “Anti-TYRP1 antibodies” (ImClone LLC, priority 2008, dated 2011)
